Results on five molecules are retold here after the supplement of paper PMC10307832.

The test system of the first assay is NCI-H1993. In words: relative viability (nuclei count vs DMSO), 5 days (fraction); higher = more cells survive. As to conditions: first compound 8 µM. The essentials:
(§1)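 Values are medians from duplicate plates. Each reflects relative viability, defined as the nuclei count of treated wells over that of vehicle wells. Lung cancer cell lines in 1536-well plates were pin-tool dosed one day after seeding with one drug alone or with a fixed anchor-drug dose plus five library-drug doses (not always all listed) in √10 steps, then fixed, stained and imaged at 4× after 5 days.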
In turn, `Nc1cccc2c1CN(C1CCC(=O)NC1=O)C2=O` (stereo not given) [Lenalidomide] + CC(=O)c1c(C)c2cnc(Nc3ccc(N4CCNCC4)cn3)nc2n(C2CCCC2)c1=O [Palbociclib] (partner 0.5 µM) showed a relative viability of 0.455.
Same read-out and setting: to `Nc1cccc2c1CN(C1CCC(=O)NC1=O)C2=O` (stereo not given) [Lenalidomide] + O=C(CCCCCCC(=O)Nc1ccccc1)NO [Vorinostat] (partner 1 µM) belongs 0.383; to `Nc1cccc2c1CN(C1CCC(=O)NC1=O)C2=O` (stereo not given) [Lenalidomide] + COc1cccc2cc(-c3nc([C@H]4CC[C@H](C(=O)O)CC4)n4ncnc(N)c34)[nH]c12 [OSI-027] (partner 0.5 µM), 0.607.

For another assay, the system named is NCI-H2085. The description is as above. As to conditions: first compound 0.253 µM. The essentials: as §1
In turn, `Nc1cccc2c1CN(C1CCC(=O)NC1=O)C2=O` (stereo not given) [Lenalidomide] + N=C(N)NC(=N)NCCc1ccccc1 [Phenformin] (partner 250 µM) showed a relative viability of 0.604.
Molecule `Nc1cccc2c1CN(C1CCC(=O)NC1=O)C2=O` (stereo not given) [Lenalidomide] + Cc1cc(Nc2cc(N3CCN(C)CC3)nc(Sc3ccc(NC(=O)C4CC4)cc3)n2)n[nH]1 [Tozasertib] (partner 0.1 µM) came in with a relative viability of 0.819.
The same measure, in the same setting: to `Nc1cccc2c1CN(C1CCC(=O)NC1=O)C2=O` (stereo not given) [Lenalidomide] + CC(=O)c1c(C)c2cnc(Nc3ccc(N4CCNCC4)cn3)nc2n(C2CCCC2)c1=O [Palbociclib] (partner 0.5 µM) belongs 0.48.
For the molecule `Nc1cccc2c1CN(C1CCC(=O)NC1=O)C2=O` (stereo not given) [Lenalidomide] + O=C(CCCCCCC(=O)Nc1ccccc1)NO [Vorinostat] (partner 1 µM), the relative viability stood at 0.826.
The same measure, in the same setting: to `Nc1cccc2c1CN(C1CCC(=O)NC1=O)C2=O` (stereo not given) [Lenalidomide] + COc1cccc2cc(-c3nc([C@H]4CC[C@H](C(=O)O)CC4)n4ncnc(N)c34)[nH]c12 [OSI-027] (partner 0.5 µM) belongs 0.818.

The same assay, now with this note: first compound 0.8 µM.
In turn, `Nc1cccc2c1CN(C1CCC(=O)NC1=O)C2=O` (stereo not given) [Lenalidomide] + N=C(N)NC(=N)NCCc1ccccc1 [Phenformin] (partner 250 µM) registered a relative viability of 0.653.
Same read-out and setting: the result for `Nc1cccc2c1CN(C1CCC(=O)NC1=O)C2=O` (stereo not given) [Lenalidomide] + Cc1cc(Nc2cc(N3CCN(C)CC3)nc(Sc3ccc(NC(=O)C4CC4)cc3)n2)n[nH]1 [Tozasertib] (partner 0.1 µM) reads 0.886; that for `Nc1cccc2c1CN(C1CCC(=O)NC1=O)C2=O` (stereo not given) [Lenalidomide] + CC(=O)c1c(C)c2cnc(Nc3ccc(N4CCNCC4)cn3)nc2n(C2CCCC2)c1=O [Palbociclib] (partner 0.5 µM), 0.496.
Still for that read-out and setting: to `Nc1cccc2c1CN(C1CCC(=O)NC1=O)C2=O` (stereo not given) [Lenalidomide] + O=C(CCCCCCC(=O)Nc1ccccc1)NO [Vorinostat] (partner 1 µM) belongs 0.691.
On the same count and under the same terms, to `Nc1cccc2c1CN(C1CCC(=O)NC1=O)C2=O` (stereo not given) [Lenalidomide] + COc1cccc2cc(-c3nc([C@H]4CC[C@H](C(=O)O)CC4)n4ncnc(N)c34)[nH]c12 [OSI-027] (partner 0.5 µM) belongs 0.518.

Still in this assay, the particulars now being: first compound 2.53 µM.
`Nc1cccc2c1CN(C1CCC(=O)NC1=O)C2=O` (stereo not given) [Lenalidomide] + N=C(N)NC(=N)NCCc1ccccc1 [Phenformin] (partner 250 µM): the relative viability turned out to be 0.827.
Same read-out and setting: to `Nc1cccc2c1CN(C1CCC(=O)NC1=O)C2=O` (stereo not given) [Lenalidomide] + Cc1cc(Nc2cc(N3CCN(C)CC3)nc(Sc3ccc(NC(=O)C4CC4)cc3)n2)n[nH]1 [Tozasertib] (partner 0.1 µM) belongs 0.938; to `Nc1cccc2c1CN(C1CCC(=O)NC1=O)C2=O` (stereo not given) [Lenalidomide] + CC(=O)c1c(C)c2cnc(Nc3ccc(N4CCNCC4)cn3)nc2n(C2CCCC2)c1=O [Palbociclib] (partner 0.5 µM), 0.432; to `Nc1cccc2c1CN(C1CCC(=O)NC1=O)C2=O` (stereo not given) [Lenalidomide] + O=C(CCCCCCC(=O)Nc1ccccc1)NO [Vorinostat] (partner 1 µM), 0.799.
Still for that read-out and setting: to `Nc1cccc2c1CN(C1CCC(=O)NC1=O)C2=O` (stereo not given) [Lenalidomide] + COc1cccc2cc(-c3nc([C@H]4CC[C@H](C(=O)O)CC4)n4ncnc(N)c34)[nH]c12 [OSI-027] (partner 0.5 µM) belongs 0.879.

The assay is the same for the next values; noted with them: first compound 8 µM.
The molecule `Nc1cccc2c1CN(C1CCC(=O)NC1=O)C2=O` (stereo not given) [Lenalidomide] + N=C(N)NC(=N)NCCc1ccccc1 [Phenformin] (partner 250 µM) came in with a relative viability of 0.562.
Still for that read-out and setting: to `Nc1cccc2c1CN(C1CCC(=O)NC1=O)C2=O` (stereo not given) [Lenalidomide] + Cc1cc(Nc2cc(N3CCN(C)CC3)nc(Sc3ccc(NC(=O)C4CC4)cc3)n2)n[nH]1 [Tozasertib] (partner 0.1 µM) belongs 0.878.
Same read-out and setting: to `Nc1cccc2c1CN(C1CCC(=O)NC1=O)C2=O` (stereo not given) [Lenalidomide] + CC(=O)c1c(C)c2cnc(Nc3ccc(N4CCNCC4)cn3)nc2n(C2CCCC2)c1=O [Palbociclib] (partner 0.5 µM) belongs 0.464; to `Nc1cccc2c1CN(C1CCC(=O)NC1=O)C2=O` (stereo not given) [Lenalidomide] + O=C(CCCCCCC(=O)Nc1ccccc1)NO [Vorinostat] (partner 1 µM), 0.624.
Still for that read-out and setting: the result for `Nc1cccc2c1CN(C1CCC(=O)NC1=O)C2=O` (stereo not given) [Lenalidomide] + COc1cccc2cc(-c3nc([C@H]4CC[C@H](C(=O)O)CC4)n4ncnc(N)c34)[nH]c12 [OSI-027] (partner 0.5 µM) reads 0.784.

Another assay deals with NCI-H2170. The description is as above. As to conditions: first compound 0.253 µM. The essentials:
as §1
For the molecule `Nc1cccc2c1CN(C1CCC(=O)NC1=O)C2=O` (stereo not given) [Lenalidomide] + N=C(N)NC(=N)NCCc1ccccc1 [Phenformin] (partner 250 µM), the relative viability stood at 0.47.
Still for that read-out and setting: to `Nc1cccc2c1CN(C1CCC(=O)NC1=O)C2=O` (stereo not given) [Lenalidomide] + Cc1cc(Nc2cc(N3CCN(C)CC3)nc(Sc3ccc(NC(=O)C4CC4)cc3)n2)n[nH]1 [Tozasertib] (partner 0.1 µM) belongs 0.612; to `Nc1cccc2c1CN(C1CCC(=O)NC1=O)C2=O` (stereo not given) [Lenalidomide] + CC(=O)c1c(C)c2cnc(Nc3ccc(N4CCNCC4)cn3)nc2n(C2CCCC2)c1=O [Palbociclib] (partner 0.5 µM), 0.436.
Still for that read-out and setting: the result for `Nc1cccc2c1CN(C1CCC(=O)NC1=O)C2=O` (stereo not given) [Lenalidomide] + O=C(CCCCCCC(=O)Nc1ccccc1)NO [Vorinostat] (partner 1 µM) reads 0.883; that for `Nc1cccc2c1CN(C1CCC(=O)NC1=O)C2=O` (stereo not given) [Lenalidomide] + COc1cccc2cc(-c3nc([C@H]4CC[C@H](C(=O)O)CC4)n4ncnc(N)c34)[nH]c12 [OSI-027] (partner 0.5 µM), 0.691.

Staying with this assay, now noted: first compound 0.8 µM.
The molecule `Nc1cccc2c1CN(C1CCC(=O)NC1=O)C2=O` (stereo not given) [Lenalidomide] + N=C(N)NC(=N)NCCc1ccccc1 [Phenformin] (partner 250 µM) returned a relative viability of 0.425.
Same read-out and setting: to `Nc1cccc2c1CN(C1CCC(=O)NC1=O)C2=O` (stereo not given) [Lenalidomide] + Cc1cc(Nc2cc(N3CCN(C)CC3)nc(Sc3ccc(NC(=O)C4CC4)cc3)n2)n[nH]1 [Tozasertib] (partner 0.1 µM) belongs 0.608.
